Where a SMILES comes first, the peptide text is derived from it. [ ]: non-standard residue; d: D form. pT = C[C@@H](OP(=O)(O)O)[C@H](N)C(=O)O
Legend:
[1] = target: T1, human PLK1-PBD (371-594) (Homo sapiens, UniProt P53350); experiment: Fluorescence polarisation binding assay for the PBD of PLK1; conditions: FITC-labelled peptide 10 nM, protein 0 to 4 μM
T1 construct: The human PLK1-PBD (371-594) was amplified by PCR; GST (N, cleaved yes); made in house; host or cells: E. coli Rosetta2(DE3)pLysS
T1 sequence (P53350 371-594): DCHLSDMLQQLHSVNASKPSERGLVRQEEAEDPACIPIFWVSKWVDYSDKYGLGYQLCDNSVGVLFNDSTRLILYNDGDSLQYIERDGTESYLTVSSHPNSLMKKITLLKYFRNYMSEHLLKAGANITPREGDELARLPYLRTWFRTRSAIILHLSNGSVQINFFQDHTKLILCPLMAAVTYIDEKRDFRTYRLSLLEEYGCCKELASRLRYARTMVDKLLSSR
Protocol: The human PLK1-PBD (371-594) was amplified by PCR and cloned into the pGEX6p-1 vector using the EcoRI and XhoI restriction enzyme sites. The protein was overexpressed in E. coli Rosetta2(DE3)pLysS cells (Novagen). The cells were grown at 37° C. in 3 L of Terrific Broth medium to an OD600 of 0.6, and recombinant protein expression was induced with 0.1 mM isopropyl β-D-thiogalactopyranoside (IPTG) at 20° C. The cells were further grown at 20° C. for 20 hr after IPTG induction. The purification methods were similar to methods that have been previously reported (Cheng, K. Y., et al. The crystal structure of the human polo-like kinase-1 polo box domain and its phospho-peptide complex. EMBO J 22, 5757-68 (2003)). Briefly, the cell pellet was resuspended in ice-cold HBS buffer (10 mM HEPES pH 7.5, 200 mM NaCl, 3.4 mM EDTA, 0.01% (v/v) 1-thioglycerol) and homogenized by sonication. After sonication, the cell debris was centrifuged and supernatant was applied to GST Sepharose resin (GE Healthcare). After extensive washing with HBS buffer, protein was eluted with HBS buffer supplemented with 20 mM reduced glutathione. PreScission protease (GE Healthcare) was added to eluted protein in order to remove the fused GST and the cleavage product was diluted and re-passed through GST Sepharose column. The flow through was collected and applied to Superdex 75 prep grade column (GE Healthcare) equilibrated with HBS buffer. The purified protein was concentrated to 6 mg/ml and used for fluorescence polarization binding assay or crystal screening.
For the fluorescence polarisation binding assay, FITC-labelled 1010pT (GVLSpTLI) or 1010T (GVLSTLI) (SEQ ID NO: 8) peptide was mixed with purified PBD and incubated in a buffer containing 10 mM HEPES (pH7.5), 50 mM NaCl, 1 mM EDTA, 1 mM DTT, and 0.0025% (v/v) Tween 20. The final protein concentrations ranged from 0 to 4 μM, and the final peptide concentration was 10 nM. Fluorescence polarisation was analysed 30 min after mixing the peptide and proteins in a 96-well plate using a VERSAmax microplate reader (Molecular Devices). Binding curves were fitted using GraphPad Prism software (GraphPad Software).
The human PLK1-PBD (371-594), PLK2-PBD (451-685) and PLK3-PBD (412-646) genes were cloned into pGEX6p-1 vector using EcoRI/XhoI restriction sites. […] The purified PLK-PBD proteins were concentrated and used for the fluorescence polarization binding assay.
For the fluorescence polarization binding assay, each fluorescein isothiocyanate (FITC)-labeled 1010pT (GVLSpTLI), 1010T (GVLSTLI), 1010E (GVLSELI), or 1010D (GVLSDLI) peptide was mixed with purified PLK1, PLK2 or PLK3 and incubated in a buffer containing 10 mM HEPES (pH 7.5), 50 mM NaCl, 1 mM EDTA, 1 mM DTT and 0.0025% (v/v) Tween 20. […]

[2] = target: T2, human PLK2-PBD (451-685) (Homo sapiens, UniProt Q9NYY3); experiment: Fluorescence polarization binding assay, PLK2-PBD; conditions: FITC-labelled peptide 10 nM, protein 0 to 4 uM
T2 construct: PLK2-PBD (451-685); GST (N, cleaved yes); made in house; host or cells: E. coli Rosetta2 (DE3) pLysS
T2 sequence (Q9NYY3 451-685): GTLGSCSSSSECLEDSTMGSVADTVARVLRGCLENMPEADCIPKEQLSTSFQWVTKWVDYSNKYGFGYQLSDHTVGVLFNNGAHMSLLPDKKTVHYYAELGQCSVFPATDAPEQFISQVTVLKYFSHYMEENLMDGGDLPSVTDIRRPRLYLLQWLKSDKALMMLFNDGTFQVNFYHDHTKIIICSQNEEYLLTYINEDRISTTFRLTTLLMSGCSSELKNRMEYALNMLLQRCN
Protocol: (§1) The human PLK1-PBD (371-594), PLK2-PBD (451-685) and PLK3-PBD (412-646) genes were cloned into pGEX6p-1 vector using EcoRI/XhoI restriction sites. Proteins were over expressed in E. coli strain Rosetta2 (DE3) pLysS. The cells were grown in Terrific Broth medium to an OD600 of 0.6 at 37° C. and recombinant proteins were induced with 0.1 mM isopropyl b-D-thiogalactopyranoside (IPTG) at 25° C. for PLK2 and 20° C. for PLK1 and PLK3, respectively. The cells were further grown at 25° C. (PLK2) or 20° C. (PLK1 and PLK3) for 20 h after IPTG induction. Each cell pellet was lysed with each PLK Binding buffer as described below. […] The purified PLK-PBD proteins were concentrated and used for the fluorescence polarization binding assay.
(§2) For the fluorescence polarization binding assay, each fluorescein isothiocyanate (FITC)-labeled 1010pT (GVLSpTLI), 1010T (GVLSTLI), 1010E (GVLSELI), or 1010D (GVLSDLI) peptide was mixed with purified PLK1, PLK2 or PLK3 and incubated in a buffer containing 10 mM HEPES (pH 7.5), 50 mM NaCl, 1 mM EDTA, 1 mM DTT and 0.0025% (v/v) Tween 20. […] Fluorescence polarization was analyzed 30 min after mixing the peptide and proteins in a 96-well plate using an INFINTE 200 PRO (Tecan). […]

[3] = target: T3, human PLK3-PBD (412-646) (Homo sapiens, UniProt Q9H4B4); experiment: Fluorescence polarization binding assay, PLK3-PBD; conditions: FITC-labelled peptide 10 nM, protein 0 to 4 uM
T3 construct: PLK3-PBD (412-646); GST (N, cleaved yes); made in house; host or cells: E. coli Rosetta2 (DE3) pLysS
T3 sequence (Q9H4B4 412-646): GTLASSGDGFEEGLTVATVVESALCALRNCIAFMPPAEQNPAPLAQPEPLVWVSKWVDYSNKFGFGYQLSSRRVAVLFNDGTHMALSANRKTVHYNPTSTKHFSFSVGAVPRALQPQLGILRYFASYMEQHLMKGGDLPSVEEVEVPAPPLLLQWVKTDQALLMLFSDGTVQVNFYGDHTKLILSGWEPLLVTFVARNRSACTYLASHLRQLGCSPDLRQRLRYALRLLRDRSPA
Protocol: as §1, §2

[4] = tested on: C. elegans; experiment: Embryonic mitosis and development after nocodazole treatment of worms; type: in vivo; conditions: nocodazole alone, without capg-2 RNAi
Protocol: C. elegans were cultivated on NGM plates at 20° C. as a standard culture method (Brenner, S. Genetics 77, 71-94 (1974)). The capg-2 RNAi clone was obtained from Dr. J. Ahringer's bacteria-feeding RNAi library, which was a kind gift from Dr. J. Lee (Seoul National University). The wild-type N2 strain was used for measuring embryo lethality when capg-2 RNAi was treated with nocodazole. RW10006 (HIS-72::GFP), XA3501 (GFP::HIS-11 and GFP::TBB-2), JG479 (NPP-1::GFP, mCherry::HIS-58 and GFP::TBB-2) and SA17(GFP::PLK-1) were used to determine the effects of capg-2 knockdown on mitosis. JG479 was generated by crossing XA3501 and OCF3 (NPP-1::GFP and mCherry::HIS-58). HIS-72 is histone 3, and TBB-2 is β-tubulin. Both HIS-11 and HIS-58 are histone 2B proteins (www.wormbase.org). Most strains were provided by the CGC, which is funded by the NIH Office of Research Infrastructure Programs (P40 OD010440). For capg-2 RNA interference, L4 worms were transferred to the RNAi plate, and the F1 embryos were observed. The HT115 E. coli strain, which contains the empty RNAi vector (L4440), was used as the control. […] The worms were removed after laying eggs for 12 hours, and the dead embryos were counted the next day. […]

For `CC[C@H](C)[C@H](NC(=O)[C@H](CC(C)C)NC(=O)[C@@H](NC(=O)[C@H](CO)NC(=O)[C@H](CC(C)C)NC(=O)[C@@H](NC(=O)CN)C(C)C)[C@@H](C)OP(=O)(O)O)C(N)=O` [1010pT, GVLSpTLI] (H-GVLS[pT]LI-NH2; N-terminus and C-terminus assumed), the “binding to PLK1-PBD (in words)” value [1] was “specifically binds”, the “binding to PLK1-PBD (in words)” value ([1]; listed as GVLS-pT-LI) was “interacts strongly” and the “binding to PLK2-PBD (in words)” value [2] was “did not bind”. The “binding to PLK3-PBD (in words)” value [3] was “did not bind”.
`COC(=O)Nc1nc2ccc(C(=O)c3cccs3)cc2[nH]1` [Nocodazole, nocodazole] was tested, and the “effect on mitosis of embryos” value [4] was “did not directly affect mitosis”.

From US9562084B2, “Peptides derived from NCAPG2 and their use” (NATIONAL CANCER CENTER, priority 2014, dated 2017)
